According to patent US8980830B2 (priority 2007, dated 2015):
Values joined by “and” are separate entries in the source; they are usually repeats but may differ in a detail not shown here. Equal values may be shown once. Read-outs that look alike come from different tables or passages of the source. Values belong to the compound of their own block, whether it stands above or below them. Bridge positions count the residues as written; N and C are the ends. Square brackets hold non-standard residues; d marks the D form. Ends that are not written are not given here. Peptide text beside a SMILES is read from it. PhLac = O=C(O)[C@@H](O)Cc1ccccc1

Assays:
Glucagon Receptor = Glucagon Receptor (Homo sapiens, UniProt P47871); test: cAMP inhibition: antagonism of glucagon-induced cAMP at glucagon receptor; type: cell-based; parameters: expressed in transfected cells; host or cells: HEK293
GLP-1 Receptor = GLP-1 Receptor (Homo sapiens, UniProt P43220); test: Functional assay, cAMP induction (luciferase reporter, HEK293) at GLP-1 receptor; type: cell-based
[1] = Glucagon antagonism IC50 (nM, inhibit 0.8 nM glucagon), Table 19
[2] = GLP-1 agonism EC50 (nM), Table 19
[3] = Glucagon antagonism IC50 (nM, inhibit 0.2-0.8 nM glucagon), Table 16, combined results of three assays
[4] = GLP-1 agonism EC50 (nM), Table 16
[5] = Glucagon antagonism IC50 (nM, inhibit 0.2-0.8 nM glucagon), Table 18

Chain of GLP-1 Receptor (P43220 24-463): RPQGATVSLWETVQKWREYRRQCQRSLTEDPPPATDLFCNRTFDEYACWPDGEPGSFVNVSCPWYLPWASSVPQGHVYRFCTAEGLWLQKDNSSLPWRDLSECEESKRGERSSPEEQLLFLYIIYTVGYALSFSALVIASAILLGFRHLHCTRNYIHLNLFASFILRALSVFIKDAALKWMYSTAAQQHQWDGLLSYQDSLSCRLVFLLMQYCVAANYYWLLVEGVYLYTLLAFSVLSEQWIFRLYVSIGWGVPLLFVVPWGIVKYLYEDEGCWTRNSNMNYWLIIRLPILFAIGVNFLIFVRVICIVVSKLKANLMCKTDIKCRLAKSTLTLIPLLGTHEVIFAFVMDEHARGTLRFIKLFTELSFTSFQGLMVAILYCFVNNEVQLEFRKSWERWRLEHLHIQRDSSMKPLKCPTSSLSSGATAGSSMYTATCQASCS
Chain of Glucagon Receptor (P47871 26-477): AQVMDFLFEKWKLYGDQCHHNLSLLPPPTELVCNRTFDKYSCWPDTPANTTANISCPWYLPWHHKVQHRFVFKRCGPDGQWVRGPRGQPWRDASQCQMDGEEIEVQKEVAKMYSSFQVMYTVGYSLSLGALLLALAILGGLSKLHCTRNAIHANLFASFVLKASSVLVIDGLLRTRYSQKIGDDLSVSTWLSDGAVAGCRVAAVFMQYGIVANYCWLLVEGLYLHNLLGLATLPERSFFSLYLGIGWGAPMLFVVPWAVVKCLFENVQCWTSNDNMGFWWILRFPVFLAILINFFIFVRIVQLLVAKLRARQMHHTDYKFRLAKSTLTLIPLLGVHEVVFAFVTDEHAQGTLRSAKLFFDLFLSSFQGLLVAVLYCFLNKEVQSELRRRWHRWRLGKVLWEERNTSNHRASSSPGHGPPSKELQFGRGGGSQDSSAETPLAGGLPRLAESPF

IC50 (Glucagon Receptor; Glucagon IC50 (nM), Table 14): 10 to 30 nM
IC50 (Glucagon Receptor; [1]): 12.7 ± 1.1 nM
EC50 (GLP-1 Receptor; [2]): 151 ± 8.8 nM
Compound: CSCC[C@H](NC(=O)[C@H](CC(C)C)NC(=O)[C@H](Cc1c[nH]c2ccccc12)NC(=O)[C@H](CCC(N)=O)NC(=O)[C@@H](NC(=O)[C@H](Cc1ccccc1)NC(=O)[C@H](CC(=O)O)NC(=O)[C@@H]1CCCCNC(=O)CC[C@H](NC(=O)[C@H](CC(=O)O)NC(=O)[C@H](CC(C)C)NC(=O)[C@H](Cc2ccc(O)cc2)NC(=O)[C@H](CCCCN)NC(=O)[C@H](CO)NC(=O)[C@H](Cc2ccc(O)cc2)NC(=O)[C@H](CCC(=O)O)NC(=O)[C@H](CO)NC(=O)[C@@H](NC(=O)[C@H](Cc2ccccc2)NC(=O)[C@@H](NC(=O)CN)[C@@H](C)O)[C@@H](C)O)C(=O)N[C@@H](CCCNC(=N)N)C(=O)N[C@@H](CCCNC(=N)N)C(=O)N[C@@H](C)C(=O)N1)C(C)C)C(=O)N[C@@H](CC(=O)O)C(=O)N[C@H](C(N)=O)[C@@H](C)O [[E9, E16K20(lactam), D28]G(4 ~ 29)] (H-GTFTSEYSKYLDERRAKDFVQWLMDT-NH2; lactam 13-17; N-terminus assumed)

Compound: CSCC[C@H](NC(=O)[C@H](CC(C)C)NC(=O)[C@H](Cc1c[nH]c2ccccc12)NC(=O)[C@H](CCC(N)=O)NC(=O)[C@@H](NC(=O)[C@H](Cc1ccccc1)NC(=O)[C@H](CC(=O)O)NC(=O)[C@H](CCC(N)=O)NC(=O)[C@H](C)NC(=O)[C@H](CCCNC(=N)N)NC(=O)[C@H](CCCNC(=N)N)NC(=O)[C@H](CCC(=O)O)NC(=O)[C@H](CC(=O)O)NC(=O)[C@H](CC(C)C)NC(=O)[C@H](Cc1ccc(O)cc1)NC(=O)[C@H](CCCCN)NC(=O)[C@H](CO)NC(=O)[C@H](Cc1ccc(O)cc1)NC(=O)[C@H](CCC(=O)O)NC(=O)[C@H](CO)NC(=O)[C@@H](NC(=O)[C@@H](O)Cc1ccccc1)[C@@H](C)O)C(C)C)C(=O)N[C@@H](CC(N)=O)C(=O)N[C@H](C(=O)NCC(=O)N1CCC[C@H]1C(=O)N[C@@H](CO)C(=O)N[C@@H](CO)C(=O)NCC(=O)N[C@@H](C)C(=O)N1CCC[C@H]1C(=O)N1CCC[C@H]1C(=O)N1CCC[C@H]1C(=O)N[C@@H](CO)C(N)=O)[C@@H](C)O [[PLA6, E9, E16]G(6-39)] (H-[PhLac]TSEYSKYLDERRAQDFVQWLMNTGPSSGAPPPS-NH2)
IC50 (Glucagon Receptor; [3]): 58.1 nM
EC50 (GLP-1 Receptor; [4]): 1760 nM

Compound: CSCC[C@H](NC(=O)[C@H](CC(C)C)NC(=O)[C@H](Cc1c[nH]c2ccccc12)NC(=O)[C@H](CCC(N)=O)NC(=O)[C@@H](NC(=O)[C@H](Cc1ccccc1)NC(=O)[C@H](CC(=O)O)NC(=O)[C@@H]1CCCCNC(=O)CC[C@H](NC(=O)[C@H](CC(=O)O)NC(=O)[C@H](CC(C)C)NC(=O)[C@H](Cc2ccc(O)cc2)NC(=O)[C@H](CCCCN)NC(=O)[C@H](CO)NC(=O)[C@H](Cc2ccc(O)cc2)NC(=O)[C@H](CCC(=O)O)NC(=O)[C@H](CO)NC(=O)[C@@H](NC(=O)[C@@H](N)Cc2ccccc2)[C@@H](C)O)C(=O)N[C@@H](CCCNC(=N)N)C(=O)N[C@@H](CCCNC(=N)N)C(=O)N[C@@H](C)C(=O)N1)C(C)C)C(=O)N[C@@H](CC(N)=O)C(=O)N[C@H](C(=O)NCC(=O)N1CCC[C@H]1C(=O)N[C@@H](CO)C(=O)N[C@@H](CO)C(=O)NCC(=O)N[C@@H](C)C(=O)N1CCC[C@H]1C(=O)N1CCC[C@H]1C(=O)N1CCC[C@H]1C(=O)N[C@@H](CO)C(N)=O)[C@@H](C)O [E9, E16K20(lactam)]
IC50 (Glucagon Receptor; [3]): 42 ± 3.6 nM
EC50 (GLP-1 Receptor; [4]): 36.4 ± 3.5 nM

Compound: [PLA6, E16K20(Lactam), C24(20 kDa), D28]G(6-29) ([PhLac]TSDYSKYLDERRAKDFVC(PEG 20 kDa)WLMDT-NH2; lactam 11-15)
IC50 (Glucagon Receptor; read-out: Glucagon antagonism IC50(nM) (inhibit 0.2-0.8 nM glucagon)): 374 to 1460 nM
EC50 (GLP-1 Receptor; read-out: GLP-1 agonism EC50, Table 21): 450 to 1840 nM

IC50 (Glucagon Receptor; Glucagon antagonism IC50 (nM, inhibit 0.8 nM glucagon), Table 24): 20.8 ± 3.09 nM
EC50 (GLP-1 Receptor; GLP-1 agonism EC50 (nM), Table 20): 45.7 ± 12.3 nM
Compound: CSCC[C@H](NC(=O)[C@H](CC(C)C)NC(=O)[C@H](Cc1c[nH]c2ccccc12)NC(=O)[C@H](CCC(N)=O)NC(=O)[C@@H](NC(=O)[C@H](Cc1ccccc1)NC(=O)[C@H](CC(=O)O)NC(=O)[C@@H]1CCCCNC(=O)CC[C@H](NC(=O)[C@H](CC(=O)O)NC(=O)[C@H](CC(C)C)NC(=O)[C@H](Cc2ccc(O)cc2)NC(=O)[C@H](CCCCN)NC(=O)[C@H](CO)NC(=O)[C@H](Cc2ccc(O)cc2)NC(=O)[C@H](CC(=O)O)NC(=O)[C@H](CO)NC(=O)[C@@H](NC(=O)[C@H](Cc2ccccc2)OC(=O)[C@@H](NC(=O)CNC(=O)[C@H](CCC(N)=O)NC(=O)[C@@H](N)CO)[C@@H](C)O)[C@@H](C)O)C(=O)N[C@@H](CCCNC(=N)N)C(=O)N[C@@H](CCCNC(=N)N)C(=O)N[C@@H](C)C(=O)N1)C(C)C)C(=O)N[C@@H](CC(=O)O)C(=O)N[C@H](C(N)=O)[C@@H](C)O [[S2Q3-O-PLA6, D9, E16K20(Lactam), D28] G(2-29)] (H-SQGT[PhLac]TSDYSKYLDERRAKDFVQWLMDT-NH2; lactam 15-19; N-terminus assumed)

Compound: CSCC[C@H](NC(=O)[C@H](CC(C)C)NC(=O)[C@H](Cc1c[nH]c2ccccc12)NC(=O)[C@H](CCC(N)=O)NC(=O)[C@@H](NC(=O)[C@H](Cc1ccccc1)NC(=O)[C@H](CC(=O)O)NC(=O)[C@H](CCC(N)=O)NC(=O)[C@H](C)NC(=O)[C@H](CCCNC(=N)N)NC(=O)[C@H](CCCNC(=N)N)NC(=O)[C@@H]1CCC(=O)NCCCC[C@H](NC(=O)[C@H](CO)NC(=O)[C@H](Cc2ccc(O)cc2)NC(=O)[C@H](CCC(=O)O)NC(=O)[C@H](CO)NC(=O)[C@@H](NC(=O)[C@@H](N)Cc2ccccc2)[C@@H](C)O)C(=O)N[C@@H](Cc2ccc(O)cc2)C(=O)N[C@@H](CC(C)C)C(=O)N[C@@H](CC(=O)O)C(=O)N1)C(C)C)C(=O)N[C@@H](CC(N)=O)C(=O)N[C@H](C(=O)NCC(=O)N1CCC[C@H]1C(=O)N[C@@H](CO)C(=O)N[C@@H](CO)C(=O)NCC(=O)N[C@@H](C)C(=O)N1CCC[C@H]1C(=O)N1CCC[C@H]1C(=O)N1CCC[C@H]1C(=O)N[C@@H](CO)C(N)=O)[C@@H](C)O [E9, K12E16(lactam)] (H-FTSEYSKYLDERRAQDFVQWLMNTGPSSGAPPPS-NH2; lactam 7-11; N-terminus assumed)
IC50 (Glucagon Receptor; Table 13, glucagon antagonist activity, read-out: Glu): 2010 nM
EC50 (GLP-1 Receptor; GLP-1 (nM), Table 13, GLP-1 agonist activity): 63 nM

Compound: CSCC[C@H](NC(=O)[C@H](CC(C)C)NC(=O)[C@H](Cc1c[nH]c2ccccc12)NC(=O)[C@H](CCC(N)=O)NC(=O)[C@@H](NC(=O)[C@H](Cc1ccccc1)NC(=O)[C@H](CC(=O)O)NC(=O)[C@H](CCCCN)NC(=O)[C@H](C)NC(=O)[C@H](CCCNC(=N)N)NC(=O)[C@H](CCCNC(=N)N)NC(=O)[C@H](CCC(=O)O)NC(=O)[C@H](CC(=O)O)NC(=O)[C@H](CC(C)C)NC(=O)[C@H](Cc1ccc(O)cc1)NC(=O)[C@H](CCCCN)NC(=O)[C@H](CO)NC(=O)[C@H](Cc1ccc(O)cc1)NC(=O)[C@H](CCC(=O)O)NC(=O)[C@H](CO)NC(=O)[C@@H](NC(=O)[C@@H](N)Cc1ccccc1)[C@@H](C)O)C(C)C)C(=O)N[C@@H](CC(N)=O)C(=O)N[C@H](C(=O)NCC(=O)N1CCC[C@H]1C(=O)N[C@@H](CO)C(=O)N[C@@H](CO)C(=O)NCC(=O)N[C@@H](C)C(=O)N1CCC[C@H]1C(=O)N1CCC[C@H]1C(=O)N1CCC[C@H]1C(=O)N[C@@H](CO)C(N)=O)[C@@H](C)O [[E9, E16, K20] G(6-39)]
Glucagon antagonism IC50(nM) (inhibit 0.2-0.8 nM glucagon) (Glucagon Receptor; Table 16, combined results of three assays): weak agonist
EC50 (GLP-1 Receptor; [4]): 1040 ± 11.9 nM

IC50 (Glucagon Receptor; [5]): 129 ± 106 nM
character of antagonism (partial antagonist, wrapped cell) (Glucagon Receptor; Table 18): partial
character of antagonism (partial antagonist, wrapped cell) (Glucagon Receptor; Table 19): partial
character of antagonism (partial antagonist, wrapped cell) (Glucagon Receptor; Table 20): partial
EC50 (GLP-1 Receptor; GLP-1 agonism EC50 (nM), Table 18): 0.11 nM
Compound: CSCC[C@H](NC(=O)[C@H](CC(C)C)NC(=O)[C@H](Cc1c[nH]c2ccccc12)NC(=O)[C@H](CCC(N)=O)NC(=O)[C@@H](NC(=O)[C@H](Cc1ccccc1)NC(=O)[C@H](CC(=O)O)NC(=O)[C@@H]1CCCCNC(=O)CC[C@H](NC(=O)[C@H](CC(=O)O)NC(=O)[C@H](CC(C)C)NC(=O)[C@H](Cc2ccc(O)cc2)NC(=O)[C@H](CCCCN)NC(=O)[C@H](CO)NC(=O)[C@H](Cc2ccc(O)cc2)NC(=O)[C@H](CCC(=O)O)NC(=O)[C@H](CO)NC(=O)[C@@H](NC(=O)[C@H](Cc2ccccc2)NC(=O)[C@@H](NC(=O)CNC(=O)[C@H](CCC(=O)O)NC(=O)[C@H](C)NC(=O)[C@@H](N)Cc2c[nH]cn2)[C@@H](C)O)[C@@H](C)O)C(=O)N[C@@H](CCCNC(=N)N)C(=O)N[C@@H](CCCNC(=N)N)C(=O)N[C@@H](C)C(=O)N1)C(C)C)C(=O)N[C@@H](CC(=O)O)C(=O)N[C@H](C(N)=O)[C@@H](C)O [[A2E3, E16K20(Lactam), D28]G(1 ~ 29)]

IC50 (Glucagon Receptor; Glucagon IC50 (nM), Table 14): 10 to 30 nM
IC50 (Glucagon Receptor; Glucagon antagonism IC50(nM) (inhibit 0.2-0.8 nM glucagon), Table 21): 5 to 27 nM
IC50 (Glucagon Receptor; Glucagon antagonism IC50 (nM, inhibit 0.4 nM glucagon), Table 22): 5 to 27 nM
IC50 (Glucagon Receptor; [1]): 13.7 ± 1.2 nM
IC50 (Glucagon Receptor; Glucagon antagonism IC50 (nM, inhibit 0.2-0.8 nM glucagon), Table 17): 11.7 ± 2.8 nM
IC50 (Glucagon Receptor; [5]): 5.5 nM
EC50 (GLP-1 Receptor; GLP-1 EC50 (nM), Table 14): 5 to 25 nM
EC50 (GLP-1 Receptor; GLP-1 agonism EC50 (nM), Table 17): 6.9 nM and 4.2 nM
EC50 (GLP-1 Receptor; [2]): 10.6 ± 0.97 nM
EC50 (GLP-1 Receptor; GLP-1 agonism EC50 (nM), Table 21): 5 to 28 nM
Compound: CSCC[C@H](NC(=O)[C@H](CC(C)C)NC(=O)[C@H](Cc1c[nH]c2ccccc12)NC(=O)[C@H](CCC(N)=O)NC(=O)[C@@H](NC(=O)[C@H](Cc1ccccc1)NC(=O)[C@H](CC(=O)O)NC(=O)[C@@H]1CCCCNC(=O)CC[C@H](NC(=O)[C@H](CC(=O)O)NC(=O)[C@H](CC(C)C)NC(=O)[C@H](Cc2ccc(O)cc2)NC(=O)[C@H](CCCCN)NC(=O)[C@H](CO)NC(=O)[C@H](Cc2ccc(O)cc2)NC(=O)[C@H](CC(=O)O)NC(=O)[C@H](CO)NC(=O)[C@@H](NC(=O)[C@@H](O)Cc2ccccc2)[C@@H](C)O)C(=O)N[C@@H](CCCNC(=N)N)C(=O)N[C@@H](CCCNC(=N)N)C(=O)N[C@@H](C)C(=O)N1)C(C)C)C(=O)N[C@@H](CC(=O)O)C(=O)N[C@H](C(N)=O)[C@@H](C)O [[PLA6, D9, E16K20(lactam), D28]G(6-29)] (H-[PhLac]TSDYSKYLDERRAKDFVQWLMDT-NH2; lactam 11-15)
